Results as given in patent US20230390171A1, “DEODORANT COMPOSITIONS COMPRISING LIPOPHILIC CARBOXYLIC ACIDS” (The Procter & Gamble Company, priority 2022, published 2023).
Converted amounts (≈) assume the structure as drawn. Read-outs that look alike come from different tables or passages of the source.

How the values were obtained:
S. epi = test: Minimum Inhibitory Concentration (MIC) of various carboxylic acids; assay type: cell-based; conditions: for potential to inhibit bacteria at an acidic pH: Table 1
Experimental: The following MIC (Minimum Inhibitory Concentration) was done on various carboxylic acids. […] In this case, the MIC was tested in two different growth media. […] The MIC or minimum inhibitory concentration test determines antimicrobial activity of a material against a specific bacteria. The most commonly employed methods are the tube dilution method and agar dilution method. Test products that are not clear or precipitate the growth media are tested by agar dilution method which is similar to the tube dilution method except dilutions are plated on agar. The tube dilution test is the standard method for determining levels of microbial resistance to an antimicrobial agent. Serial dilutions of the test agent are made in a liquid microbial growth medium which is inoculated with a standardized number of organisms and incubated for a prescribed time. The lowest concentration (highest dilution) of test agent preventing appearance of turbidity (growth) is considered to be the minimal/minimum inhibitory concentration (MIC). At this dilution the test agent is bacteriostatic.

S. epidermidis = test: Finished Product Soleris Method (detection time, resistance to growth of bacteria); assay type: cell-based; conditions: Table 3; 1.5% acid in clear gel, 1:10 dilution
Experimental: The products shown in examples 1-14 in Table 2 were tested for their resistance to the growth of bacteria by the Finished Product Soleris Method in a 1:10 dilution with artificial eccrine, pH 6, non-stabilized as provided by Pickering Solutions.
The products shown in examples 15-30 in Table 5 were tested for their resistance to the growth of bacteria by the Finished Product Soleris Method in a 1:10 dilution with artificial eccrine, pH 6, non-stabilized as provided by Pickering Solutions.
The products shown in examples 31-34 in table 8 were tested for their resistance to the growth of bacteria by the Finished Product Soleris Method in a 1:10 dilution with artificial eccrine, pH 6, non-stabilized as provided by Pickering Solutions.
Sample preparation is done in the following manner. The product to be tested is weighed into a vial at a ratio of 1 part product to 10 parts Artificial Eccrine, custom pH 6, non-stabilized as obtained by Pickering Laboratories (cat. No. 1700-0023). In some cases where products have a higher hostility, the dilution in a particular study may be 1 part deodorant product to 100 parts Artificial Eccrine, custom pH 6, non-stabilized. Products are heated to 72° C. for 30 minutes to melt solid products and facilitate dispersion into the artificial eccrine. […] There may be some insoluble media present after dispersion. The dilutions remainder of the procedure is described below in “Analyzing via Soleris”.
• S. epidermidis grown overnight on tryptic soy agar (37 C) • Colony from agar is suspended in 25 ml tryptic soy broth in baffled flask, and incubated overnight on shaking platform (37 C) • 1 ml of overnight culture is diluted into 9 ml of sterile H2O (this serves as the inoculum for experimental formulas) • For testing liquid products, 5 ml of experimental formula transferred to 15 ml conical tube. For testing solid formulations, a 48 or 96-well tissue culture plates is used, with each well containing 100 ul of solidified formulations. Alternately, for solid formulations, collect […] and apply 10-20 g of water and let sit at least 1 hour. […]

[1] = growth media pH 4.2, read-out: MIC S. epi pH 4.2
[2] = growth media pH 7.2, read-out: MIC S. epi pH 7.2

| Structure (SMILES) | potential to inhibit bacteria at an acidic pH (S. epi) | MIC (S. epi; [1]) [µg/mL] | MIC (S. epi; [2]) [µg/mL] | MIC S. epi pH 4.2 (S. epi; growth media pH 4.2) [ppm] | MIC S. epi pH 7.2 (S. epi; growth media pH 7.2) [ppm] | ability to prevent the growth of bacteria (S. epidermidis) |
| --- | --- | --- | --- | --- | --- | --- |
| O=C(O)CCCCCCCC(=O)O [Azelaic Acid, reference compound] | greatest potential to inhibit bacteria at an acidic pH | 125 (≈ 664 µM) | > 500 |  |  |  |
| CCCCCCCC(=O)Oc1ccccc1C(=O)O [Capryloyl Salicylic Acid] | greatest potential to inhibit bacteria at an acidic pH | 4 (≈ 15.1 µM) | 125 (≈ 473 µM) |  |  |  |
| CCCCCCCCC(O)C(=O)O (stereo not shown) [Hydroxycapric Acid] | greatest potential to inhibit bacteria at an acidic pH |  |  | 15.6 | >2500 | strong ability to prevent the growth of bacteria |
| O=c1cc(CO)occ1O [Kojic Acid] |  | > 500 | > 500 |  |  |  |
| O=C(O)C(O)c1ccccc1 (stereo not shown) [Mandelic Acid] | greatest potential to inhibit bacteria at an acidic pH | 312 (≈ 2050 µM) | > 2500 |  |  | strong ability to prevent the growth of bacteria |
| O=C(O)c1ccc(O)c(O)c1 [Protocatechuic Acid] |  | 500 (≈ 3240 µM) | > 500 |  |  |  |
| O=C(O)c1ccccc1O [salicylic acid, reference compound] |  |  |  |  |  | strong ability to prevent the growth of bacteria |
